Reference: US11197906B2, “Methods of lowering blink reflex for the treatment of dry eye disease” (Tufts Medical Center, priority 2016, dated 2021)
One block for each compound: values may come before it. Non-standard residues stand in square brackets, D forms with d. Residues, ends and D or L forms follow the SMILES beside them. Primed or numbered codes have the meaning given here. *: point of attachment. Palmitoyl = CCCCCCCCCCCCCCCC(=O)*; Tic = O=C(O)[C@@H]1Cc2ccccc2CN1; PEG8′ = not defined here

Legend:
CMKLR1 [1] = target: T1, CMKLR1 (Homo sapiens, UniProt Q99788); assay: β-Arrestin recruitment, Link-Light CMKLR1 stable cell line; format: cell-based; details: 1 hr treatment; for Emax: read-out: Max Efficacy (% 10 μM s-Stable chem9)
T1 construct: expressed in transfected cells; host or cells: HEK293
T1 sequence (Q99788 1-373): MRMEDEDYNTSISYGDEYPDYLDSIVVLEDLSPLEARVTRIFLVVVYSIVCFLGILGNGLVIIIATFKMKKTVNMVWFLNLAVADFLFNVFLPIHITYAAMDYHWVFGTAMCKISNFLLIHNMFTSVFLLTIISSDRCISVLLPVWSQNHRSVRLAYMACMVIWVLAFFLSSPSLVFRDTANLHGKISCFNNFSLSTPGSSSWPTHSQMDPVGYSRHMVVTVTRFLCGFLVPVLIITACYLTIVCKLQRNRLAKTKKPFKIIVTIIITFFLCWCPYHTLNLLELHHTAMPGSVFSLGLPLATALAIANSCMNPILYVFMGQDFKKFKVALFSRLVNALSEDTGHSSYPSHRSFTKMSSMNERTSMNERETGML

CMKLR1 [2] = target: T1, CMKLR1; assay: Luciferase reporter assay of CMKLR1 canonical Gαi signal transduction in HEK293 cells transiently expressing recombinant CMKLR1 (+/- wash, +/- albumin); format: cell-based; details: for EC50: no wash
[3] = system: chronic constriction injury (CCI) mouse model; assay: Chronic constriction injury (CCI) mouse model of neuropathic pain; format: in vivo; details: for effect on neuropathic pain: CCI mouse model; for time after compound administration over which mechanical hypersensitivity is blocked / efficacy kept: intrathecal administration
Description: Following intrathecal administration of compound, 1-Stable Chem (C16-stable Chem9) blocked mechanical hypersensitivity for more than 24 hours after compound administration (FIG. 6A). In contrast, Resolvin E1 lost efficacy by 3 hours post injection (FIG. 6B).
One emerging treatment strategy to treat neuropathic pain is to target modulators of the neuroinflammatory process which contributes to neuropathic pain. We have previously identified a palmitoylated stable analog (“C16-Stable Chem9”) derived from a 9 amino acid fragment of chemerin. […] Extending from these observations, we hypothesized that the pharmacological properties of our peptide may be further optimized by modifying the lipid anchor. We have chemically synthesized a series of Chem 9 analogs with various lipid tails (e.g. cholesterol, oleic acid, linolenic acid). In vitro pharmacological characterization of each peptide was done using HEK293 cells transiently expressing the recombinant CMKLR1. […] Furthermore, selected lipid tails bias binding to either albumin (thus enhancing systemic delivery) or to the cellular membrane (which favors locally restricted function). The lipidated CMKLR1 ligands have promise as modulators of neuropathic pain. In addition, our findings illustrate an approach where serial addition/substitution of lipid anchors can be applied to optimize the pharmacological as well as pharmacokinetic properties of many peptide ligands.

[4] = system: mouse model of corneal inflammation; assay: Thermal cautery mouse model of corneal inflammation; format: in vivo
Description: FIG. 15 is a set of flow cytometry graphs showing that cell infiltration decreases after topical application of oTTx-010 compared to vehicle. Flow cytometry of pulled corneas was performed on day 3 post cautery. Mice were treated topically three times a day with 10 μL of oTTx-010 or vehicle for 3 days. 10 μL of […] oTTx-010 in 1×PBS solution=4.2 micrograms oTTx-010/dose.
Thermal cautery is a mouse model of corneal inflammation (see Arch Ophthalmol. 2003 Hamrah et al.).

DED mice = assay: Dry eye disease (DED) mouse model (scopolamine and desiccating stress); format: in vivo
Text: FIG. 11 is a graph showing that corneal fluorescein staining scores were lower in DED mice treated with oTTx-010. NEI scoring system: 0-15.
FIG. 13 is a set of flow cytometry graphs showing that percentage of activated immune cells (MHCII+) in the draining lymph node of oTTx-010 treated mice decreased compared to vehicle controls.
FIG. 14 is a set of flow cytometry graphs showing that T regulatory cells increased in the draining lymph node of oTTx-010 treated mice compared to vehicle (showing more tolerance). Flow cytometry of draining lymph nodes gated on CD45+ CD3+ and CD4+ (T cells).
In the DED mouse model, scopolamine is injected 3 times/day to decrease tear production in mice. Fenestrated cages and 4 fans around the cage working 24 hours/day are used to induce desiccating stress and dry eyes. oTTx-010 is administered to the mice to assess treatment efficacy. Vehicle is administered as control.

Compound: CCCC(=O)NCCOCCOCCOCCOCCOCCOCCOCCOCCC(=O)N[C@@H](CCCCN)C(=O)NCC(=O)NCC(=O)N[C@H](Cc1ccc(O)cc1)C(=O)N[C@@H](Cc1ccccc1)C(=O)N[C@@H](CC(C)C)C(=O)N1CCC[C@H]1C(=O)N[C@H](CO)C(=O)N[C@@H](CCC(N)=O)C(=O)N[C@@H](Cc1ccccc1)C(=O)N[C@H](C)C(=O)N1Cc2ccccc2C[C@H]1C(=O)N[C@@H](CO)C(=O)O [C4] (HELM PEPTIDE1{[CCCC(=O)[*:2]].[O=C(CCOCCOCCOCCOCCOCCOCCOCCOCCN[*:1])[*:2]].K.G.G.[dY].F.L.P.[dS].Q.F.[dA].[Tic].S}$$$$V2.0; N-terminus and C-terminus assumed)
Emax (CMKLR1 [1]): 89.7%

Compound: CCCC/C=C\CCCCCCCC(=O)NCCOCCOCCOCCOCCOCCOCCOCCOCCC(=O)N[C@@H](CCCCN)C(=O)NCC(=O)NCC(=O)N[C@H](Cc1ccc(O)cc1)C(=O)N[C@@H](Cc1ccccc1)C(=O)N[C@@H](CC(C)C)C(=O)N1CCC[C@H]1C(=O)N[C@H](CO)C(=O)N[C@@H](CCC(N)=O)C(=O)N[C@@H](Cc1ccccc1)C(=O)N[C@H](C)C(=O)N1Cc2ccccc2C[C@H]1C(=O)N[C@@H](CO)C(=O)O [C14:1] (HELM PEPTIDE1{[CCCC/C=C\CCCCCCCC(=O)[*:2]].[O=C(CCOCCOCCOCCOCCOCCOCCOCCOCCN[*:1])[*:2]].K.G.G.[dY].F.L.P.[dS].Q.F.[dA].[Tic].S}$$$$V2.0; N-terminus and C-terminus assumed)
Emax (CMKLR1 [1]): 124%

Compound: CCCCCC/C=C\CCCCCCCC(=O)NCCOCCOCCOCCOCCOCCOCCOCCOCCC(=O)N[C@@H](CCCCN)C(=O)NCC(=O)NCC(=O)N[C@H](Cc1ccc(O)cc1)C(=O)N[C@@H](Cc1ccccc1)C(=O)N[C@@H](CC(C)C)C(=O)N1CCC[C@H]1C(=O)N[C@H](CO)C(=O)N[C@@H](CCC(N)=O)C(=O)N[C@@H](Cc1ccccc1)C(=O)N[C@H](C)C(=O)N1Cc2ccccc2C[C@H]1C(=O)N[C@@H](CO)C(=O)O [C16:1] (HELM PEPTIDE1{[CCCCCC/C=C\CCCCCCCC(=O)[*:2]].[O=C(CCOCCOCCOCCOCCOCCOCCOCCOCCN[*:1])[*:2]].K.G.G.[dY].F.L.P.[dS].Q.F.[dA].[Tic].S}$$$$V2.0; N-terminus and C-terminus assumed)
Emax (CMKLR1 [1]): 154%

Compound: CC/C=C\C/C=C\C/C=C\CCCCCCCC(=O)NCCOCCOCCOCCOCCOCCOCCOCCOCCC(=O)N[C@@H](CCCCN)C(=O)NCC(=O)NCC(=O)N[C@H](Cc1ccc(O)cc1)C(=O)N[C@@H](Cc1ccccc1)C(=O)N[C@@H](CC(C)C)C(=O)N1CCC[C@H]1C(=O)N[C@H](CO)C(=O)N[C@@H](CCC(N)=O)C(=O)N[C@@H](Cc1ccccc1)C(=O)N[C@H](C)C(=O)N1Cc2ccccc2C[C@H]1C(=O)N[C@@H](CO)C(=O)O [C18:3] (HELM PEPTIDE1{[CC/C=C\C/C=C\C/C=C\CCCCCCCC(=O)[*:2]].[O=C(CCOCCOCCOCCOCCOCCOCCOCCOCCN[*:1])[*:2]].K.G.G.[dY].F.L.P.[dS].Q.F.[dA].[Tic].S}$$$$V2.0; N-terminus and C-terminus assumed)
activity after washing in the presence of BSA (CMKLR1 [2]; with BSA, FIGS. 8C-8D): further reduced
Emax (CMKLR1 [1]): 110%

Compound: CC[C@@H](O)/C=C/C=C\C[C@@H](O)/C=C/C=C/C=C\[C@@H](O)CCCC(=O)O [Resolvin E1, reference compound]
effect on neuropathic pain [3]: abrogate neuropathic pain
time after compound administration over which mechanical hypersensitivity is blocked / efficacy kept [3]: ≤ 3 h

Compound: CC(C)C[C@H](NC(=O)[C@H](Cc1ccccc1)NC(=O)[C@H](N)Cc1ccc(O)cc1)C(=O)N1CCC[C@H]1C(=O)N[C@H](CO)C(=O)N[C@@H](CCC(N)=O)C(=O)N[C@@H](Cc1ccccc1)C(=O)N[C@H](C)C(=O)N1Cc2ccccc2C[C@H]1C(=O)N[C@@H](CO)C(=O)O [none, reference compound] (HELM PEPTIDE1{[dY].F.L.P.[dS].Q.F.[dA].[Tic].S}$$$$V2.0)
EC50 (CMKLR1 [2]; no BSA, read-out: EC50 (no wash0)): 35.2 nM
EC50 (CMKLR1 [2]; with BSA, read-out: EC50 (BSA) (no wash)): 5.1 nM
EC50 (CMKLR1 [1]): 31.9 nM
Emax (CMKLR1 [1]): 100%

Compound: palmitate-PEG8KGG-H2N-Y*-F-L-P-S*-Q-F-A*-Tic-S-COOH ({Palmitoyl-PEG8′}-KGG[dY]FLP[dS]QF[dA][Tic]S-OH) [oTTx-010]
cell infiltration (flow cytometry of corneas) ([4]; day 3 post cautery, topical three times a day 10 μL for 3 days, compared to vehicle): decreases
inflammation in the eye ([4]; topical): decrease inflammation in the eye
corneal fluorescein staining scores (DED mice; NEI scoring system: 0-15, compared with vehicle): lower
blink reflex as a sign of ocular irritation (DED mice; compared to vehicle treated group): significantly lower
T regulatory cells in the draining lymph node (DED mice; flow cytometry gated on CD45+ CD3+ and CD4+, compared to vehicle): increased
percentage of activated immune cells (MHCII+) in the draining lymph node (DED mice; flow cytometry, compared to vehicle controls): decreased
clinical symptoms and signs and immune tolerance in DED (DED mice; topical): decrease clinical symptoms and signs and improve immune tolerance

Second part, led by results:

Emax (CMKLR1 [1]): 98.3%
Compound: CCCCCCCCCC(=O)NCCOCCOCCOCCOCCOCCOCCOCCOCCC(=O)N[C@@H](CCCCN)C(=O)NCC(=O)NCC(=O)N[C@H](Cc1ccc(O)cc1)C(=O)N[C@@H](Cc1ccccc1)C(=O)N[C@@H](CC(C)C)C(=O)N1CCC[C@H]1C(=O)N[C@H](CO)C(=O)N[C@@H](CCC(N)=O)C(=O)N[C@@H](Cc1ccccc1)C(=O)N[C@H](C)C(=O)N1Cc2ccccc2C[C@H]1C(=O)N[C@@H](CO)C(=O)O [C10] (HELM PEPTIDE1{[CCCCCCCCCC(=O)[*:2]].[O=C(CCOCCOCCOCCOCCOCCOCCOCCOCCN[*:1])[*:2]].K.G.G.[dY].F.L.P.[dS].Q.F.[dA].[Tic].S}$$$$V2.0; N-terminus and C-terminus assumed)

potency and duration of activity (anchors to the cell membrane) (CMKLR1 [2]; previously identified analog): high potency and long-term activity
wash resistance (an index of membrane adherence) in the presence of BSA (CMKLR1 [2]; with BSA, FIGS. 8A-8B): decreased
Emax (CMKLR1 [1]): 165%
Compound: CCCCCCCCCCCCCCCC(=O)NCCOCCOCCOCCOCCOCCOCCOCCOCCC(=O)N[C@@H](CCCCN)C(=O)NCC(=O)NCC(=O)N[C@H](Cc1ccc(O)cc1)C(=O)N[C@@H](Cc1ccccc1)C(=O)N[C@@H](CC(C)C)C(=O)N1CCC[C@H]1C(=O)N[C@H](CO)C(=O)N[C@@H](CCC(N)=O)C(=O)N[C@@H](Cc1ccccc1)C(=O)N[C@H](C)C(=O)N1Cc2ccccc2C[C@H]1C(=O)N[C@@H](CO)C(=O)O [C16] (HELM PEPTIDE1{[CCCCCCCCCCCCCCCC(=O)[*:2]].[O=C(CCOCCOCCOCCOCCOCCOCCOCCOCCN[*:1])[*:2]].K.G.G.[dY].F.L.P.[dS].Q.F.[dA].[Tic].S}$$$$V2.0; N-terminus and C-terminus assumed)
effect on neuropathic pain ([3]; listed as C16-stable Chem9): abrogate neuropathic pain
effect on neuropathic pain ([3]; listed as palm sC9): alleviated neuropathic pain
time after compound administration over which mechanical hypersensitivity is blocked / efficacy kept [3]: more than 24 hours

Emax (CMKLR1 [1]): 160%
Compound: CCCCCCCC/C=C\CCCCCCCC(=O)NCCOCCOCCOCCOCCOCCOCCOCCOCCC(=O)N[C@@H](CCCCN)C(=O)NCC(=O)NCC(=O)N[C@H](Cc1ccc(O)cc1)C(=O)N[C@@H](Cc1ccccc1)C(=O)N[C@@H](CC(C)C)C(=O)N1CCC[C@H]1C(=O)N[C@H](CO)C(=O)N[C@@H](CCC(N)=O)C(=O)N[C@@H](Cc1ccccc1)C(=O)N[C@H](C)C(=O)N1Cc2ccccc2C[C@H]1C(=O)N[C@@H](CO)C(=O)O [C18:1] (HELM PEPTIDE1{[CCCCCCCC/C=C\CCCCCCCC(=O)[*:2]].[O=C(CCOCCOCCOCCOCCOCCOCCOCCOCCN[*:1])[*:2]].K.G.G.[dY].F.L.P.[dS].Q.F.[dA].[Tic].S}$$$$V2.0; N-terminus and C-terminus assumed)
